Test results as given in patent US11357778B2, “Antagonist of the fibroblast growth factor receptor 3 (FGFR3) for use in the treatment or the prevention of skeletal disorders linked with abnormal activation of FGFR3” (INSTITUT NATIONAL DE LA SANTE ET DE LE RECHERCHE MEDICALE …, priority 2011, dated 2022).

How the values were obtained:
[1] = tested on: FGFR3^Y373C, FGFR3^K650E, FGFR3^K650M; assay: Constitutive FGFR3 phosphorylation in transfected human chondrocyte lines / HEK cells (immunoprecipitation, immunoblot, immunocytochemistry); format: cell-based
Description: Human Embryonic Kidney (HEK) cells and human chondrocyte lines (Benoist-Lasselin et al., FEBS Lett, 581: 2593-2598, 2007.) were transfected transiently with FGFR3 human constructs (FGFR^3Y373C, FGFR3^K650M, FGFR3^K650E) (Gibbs, L. and Legeai-Mallet, L. Biochim Biophys Acta, 1773: 502-512, 2007) using Fugene 6 (Roche). A31 (31) or PD173074 (Parke Davies) were added at a concentration of 2 mM overnight. Transfected cells were lysed in RIPA buffer (50 mM Tris-HCl pH 7.6, 150 mM NaCl, 0.5% NP40, 0.25% sodium deoxycholate, supplemented with protease and phosphatase inhibitors).
Immunoprecipitation were performed by incubating […] rabbit anti-FGFR3 (Sigma)/[…] protein with protein A-agarose (Roche). […] Bound proteins were detected by chemiluminescence (ECL, Amersham). The blots were rehybrididized with an antipan-actin antibody for quantification (Millipore).
For immunocytochemistry, the inventors used the following primary antibodies: anti-FGFR3 antibodies (1:400 dilution; Sigma) and anti-phosphotyrosine antibodies (1:200 dilution; Cell Signaling) and secondary antibodies Alexa Fluor®488 goat antirabbit and Alexa Fluor®568 goat anti-mouse (1:400 dilution; Molecular Probes). Cells were covered with Faramount Aquaeous Mounting Medium (Dako) and analyzed using an Olympus PD70-IX2-UCB microscope. […]

[2] = tested on: FGFR3^Y373C transfected NIH3T3 cells; assay: [3H]-thymidine incorporation in NIH3T3 cells expressing FGFR3^Y373C; format: cell-based, mouse; conditions: A31 2 mM
Description: (§1) NIH-3T3 clones stably expressing FGFR3^+/+ (WT) and FGFR3^Y373C, FGFR3K650M (human constructs) were used. The stable clones were selected with G418. NIH-3T3 clones were incubated for 8 h in 10% newborn calf serum DMEM supplemented or not with A31 (2 mM). [3H] thymidine was added at a concentration of […] and incubated for 16 hours. The cells were harvested on glass fiber filter paper and assayed for radioactivity by liquid scintillation counting. The inventors used Top Count Microplates scintillation counter (Perkin Elmer).
(§2) To determine whether A31 modulates the mitogenic activity of activated FGFR3, the inventors measured [3H]-thymidine incorporation in FGFR3^Y373C and FGFR3^K650M transfected NIH3T3 cells. The mitogenic activity was increased in cells expressing FGFR3 mutations compared to WT (FGFR3^Y373C, 9927±2921 cpm; FGFR3^K650M, 15048±5251 cpm; WT, 7499±1667 cpm; p<10^−5 versus WT).

[3] = tested on: Fgfr3^Y367C/+ mouse growth plates; assay: Proliferation markers and cell cycle regulators in growth plates (immunohistochemistry, PCNA quantification); format: cell-based
Description: In situ hybridization using [S35]-UTP labeled antisense ribopropes for collagen X was carried out as previously described (Delezoide et al., Hum Mol Genet, 6, 1899-1906, 1997). Sections were counterstained with Hematoxylin. For immunohistochemistry, sections were stained with antibodies specific to FGFR3 (1:250 dilution; Sigma), anti PCNA (1:1000 dilution; Abcam), anti-KI67 (1:300; Abcam), anti-cyclin D1 (1:80 dilution; Santa Cruz) and anti-p57 (1:100 dilution; Santa Cruz) using the Dako Envision kit. Images were captured with an Olympus PD70-IX2-UCB microscope.
Three observers counted PCNA-positive and negative chondrocytes in proliferative […], prehypertrophic (PH) and hypertrophic (H) zones of the growth plate. A Student's t-test was used to compare treated (A31) and untreated femurs. Imagine software cellSens (Olympus) was used for counting cells. A p-value<0.05 is considered significant.
The inventors noted a higher expression of PCNA than KI67 in the mutant growth plate. Furthermore, the inventors investigated whether the presence of mutated Fgfr3 caused an impairment of expression of cell cycle regulators. In fact, activated Fgfr3 induced a significant overexpression of cyclin D1 in the proliferative and PH chondrocytes of Fgfr3^Y367C/+ mice. […] The inventors further analyzed the level of CDK inhibitors (CDKIs) negatively regulating the cell cycle, particularly p57, a member of the Cip/Kip family. Activated Fgfr3 induced a higher expression of p57 predominantly in late proliferative and PH chondrocytes. […] The inventors conclude that activated FGFR3 leads to over-expression of markers of proliferation (PCNA, KI67) and cell cycle regulators (cyclin D1 and p57) particularly in the prehypertrophic zone.

[4] = tested on: FGFR3^K650M transfected NIH3T3 cells; assay: [3H]-thymidine incorporation in NIH3T3 cells expressing FGFR3^K650M; format: cell-based, mouse; conditions: A31 2 mM
Description: as §1, §2

[5] = A31-treated Fgfr3^Y367C/+ growth plates

COc1cc(OC)cc(-c2cc3cnc(NCc4cn(CC5CCCN(C)C5)nn4)nc3nc2NC(=O)NC(C)(C)C)c1 (stereo not drawn) [Compound A31]
constitutive FGFR3 receptor phosphorylation (immunoprecipitation and Western blotting) ([1]; 2 mM overnight, cells expressing FGFR3^Y373C, FGFR3^K650E, FGFR3^K650M): abolished receptor phosphorylation
FGFR3 phosphorylation by immunocytochemistry ([1]; transfected cells expressing FGFR3 mutations, data not shown): complete inhibition
[3H]-thymidine incorporation (DNA synthesis) [2]: 3144±1201 cpm
PCNA positive cells, hypertrophic (H) zone [3, 5]: 18%
PCNA positive cells, prehypertrophic (PH) zone [3, 5]: 20%
p57 protein expression in growth plate ([3]; A31, PH zone, data not shown): reduced expression of p57 protein
KI67 expression in growth plates ([3]; A31, data not shown): decreased this expression
cyclin D1 expression in mutant femurs (immunohistochemistry) ([3]; A31, data not shown): returned cyclin D1 expression to control levels
[3H]-thymidine incorporation (DNA synthesis) [4]: 6281±2699 cpm
